Broadly, the pIC50 is the negative decadic logarithm of the IC50, by convention in mol/L.

Each structure is given as a SMILES string. pIC50: −log10 of the molar value.

T1 sequence (O00763 129-2458 limits assumed): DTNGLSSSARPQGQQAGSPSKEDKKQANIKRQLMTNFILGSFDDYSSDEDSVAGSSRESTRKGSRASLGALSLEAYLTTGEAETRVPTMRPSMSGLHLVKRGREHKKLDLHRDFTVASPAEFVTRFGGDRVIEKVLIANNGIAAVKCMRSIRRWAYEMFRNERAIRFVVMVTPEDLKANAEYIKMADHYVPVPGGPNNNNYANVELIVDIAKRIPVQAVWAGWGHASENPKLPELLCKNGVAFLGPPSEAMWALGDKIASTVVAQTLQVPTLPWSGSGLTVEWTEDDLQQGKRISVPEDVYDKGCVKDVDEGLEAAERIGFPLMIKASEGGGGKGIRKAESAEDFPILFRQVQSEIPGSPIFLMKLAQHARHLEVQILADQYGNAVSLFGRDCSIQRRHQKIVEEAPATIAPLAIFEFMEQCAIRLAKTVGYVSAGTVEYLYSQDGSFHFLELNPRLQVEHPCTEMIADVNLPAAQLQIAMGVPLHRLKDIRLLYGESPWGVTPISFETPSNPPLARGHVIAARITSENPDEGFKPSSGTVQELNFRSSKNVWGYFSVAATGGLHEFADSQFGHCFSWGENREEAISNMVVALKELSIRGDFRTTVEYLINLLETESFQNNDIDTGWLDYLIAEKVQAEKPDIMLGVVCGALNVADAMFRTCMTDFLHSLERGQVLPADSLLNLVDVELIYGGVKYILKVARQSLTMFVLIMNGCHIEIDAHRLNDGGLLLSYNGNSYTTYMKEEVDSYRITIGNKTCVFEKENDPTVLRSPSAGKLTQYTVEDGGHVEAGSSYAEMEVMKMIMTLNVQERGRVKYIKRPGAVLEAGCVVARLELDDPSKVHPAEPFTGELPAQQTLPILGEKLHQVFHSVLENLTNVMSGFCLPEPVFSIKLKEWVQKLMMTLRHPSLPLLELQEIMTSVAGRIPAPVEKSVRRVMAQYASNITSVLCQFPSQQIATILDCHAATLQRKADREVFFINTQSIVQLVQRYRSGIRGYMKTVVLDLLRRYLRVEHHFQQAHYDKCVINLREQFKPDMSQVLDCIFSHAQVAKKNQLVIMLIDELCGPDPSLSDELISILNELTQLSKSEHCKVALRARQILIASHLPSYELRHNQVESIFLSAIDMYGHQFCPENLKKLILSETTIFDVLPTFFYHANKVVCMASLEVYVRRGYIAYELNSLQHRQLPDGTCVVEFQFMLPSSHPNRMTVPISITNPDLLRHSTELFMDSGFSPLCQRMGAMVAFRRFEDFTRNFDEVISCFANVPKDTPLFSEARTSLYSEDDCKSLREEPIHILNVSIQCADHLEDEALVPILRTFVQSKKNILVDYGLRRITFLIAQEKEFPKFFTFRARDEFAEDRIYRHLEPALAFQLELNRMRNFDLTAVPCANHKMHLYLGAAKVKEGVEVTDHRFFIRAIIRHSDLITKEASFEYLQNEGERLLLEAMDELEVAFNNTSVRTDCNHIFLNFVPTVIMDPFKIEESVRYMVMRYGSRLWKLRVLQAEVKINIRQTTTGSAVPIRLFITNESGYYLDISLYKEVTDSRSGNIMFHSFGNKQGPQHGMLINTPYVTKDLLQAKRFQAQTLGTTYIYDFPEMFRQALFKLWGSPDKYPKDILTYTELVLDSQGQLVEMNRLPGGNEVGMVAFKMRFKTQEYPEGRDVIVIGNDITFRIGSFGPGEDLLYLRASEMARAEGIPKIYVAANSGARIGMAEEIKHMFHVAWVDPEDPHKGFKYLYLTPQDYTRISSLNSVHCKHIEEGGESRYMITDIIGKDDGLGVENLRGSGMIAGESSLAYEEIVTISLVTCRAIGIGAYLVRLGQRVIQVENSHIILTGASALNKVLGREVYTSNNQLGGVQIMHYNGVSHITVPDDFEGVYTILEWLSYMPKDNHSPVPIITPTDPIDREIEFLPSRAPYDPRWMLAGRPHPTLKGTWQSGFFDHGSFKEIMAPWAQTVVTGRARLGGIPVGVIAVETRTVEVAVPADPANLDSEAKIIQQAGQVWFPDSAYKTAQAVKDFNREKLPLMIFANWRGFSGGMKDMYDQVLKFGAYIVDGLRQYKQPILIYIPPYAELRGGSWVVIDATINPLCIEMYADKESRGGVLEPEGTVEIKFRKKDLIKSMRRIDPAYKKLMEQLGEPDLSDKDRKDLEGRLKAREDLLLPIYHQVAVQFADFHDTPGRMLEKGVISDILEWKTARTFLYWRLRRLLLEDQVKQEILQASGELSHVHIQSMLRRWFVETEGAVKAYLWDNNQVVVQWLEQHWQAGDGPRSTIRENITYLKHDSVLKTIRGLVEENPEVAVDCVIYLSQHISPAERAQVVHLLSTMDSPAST

This assay addresses T1, human ACC2 (Homo sapiens, UniProt O00763).
T1 construct: made in house; host or cells: insect cells (baculoviral expression system)
The assay is described as follows: ACC2 assay, spectrophotometric 384 well assay (NADH-linked, coupled lactate dehydrogenase/pyruvate kinase). As to conditions: ACC2 assay, hACC2 construct lacking 128 N-terminal amino acids, 25° C., 340 nm; read-out: IC50. It counts as biochemical. Put shortly: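 Human ACC2 lacking N-terminal 128 aa, baculovirus/insect-cell expressed, anion-exchange purified; 100 mM Tris pH 7.5, 10 mM citrate, 25 mM KHCO3, 1% DMSO. Started with 200 μM NADH and acetyl-CoA plus 500 μM ATP; PK/LDH-coupled A340 decrease read 15 min at 25° C. IC50 by nonlinear fit of low-control-subtracted slopes.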
In the case of `CC(=O)N[C@@H](C)c1ccc(C2CCN(c3ncc(-c4ccc(C)cc4C)cn3)CC2)cc1` [Example 10.48], the pIC50 is 5.92.

`CC(=O)N[C@@H](C)c1ccc(C2CCN(c3ncc(C(=O)N4CCC(C(N)=O)CC4)cn3)CC2)cc1` [Example 18.61]: the pIC50 is 4.72.

As for `CCCOc1ccc(N2CCC(c3ccc([C@H](C)NC(C)=O)cc3)CC2)cn1` [Example 1.55], the pIC50 is 6.62. The value for `CC(=O)N[C@@H](C)c1ccc(C2CCN(c3ncc(-c4ccc(C)c(Cl)c4)cn3)CC2)cc1` [Example 10.67] was 7.05; that for `CCOc1ccc(N2CCC(c3ccc([C@H](C)NC(C)=O)cc3)CC2)cc1OCC` [Example 1.47] was 5.54; that for `CC(=O)N[C@@H](C)c1ccc(C2CCN(c3ccnc(C(F)(F)F)n3)CC2)cc1` [Example 4.26] was 6.54. For the compound `CC(=O)N[C@@H](C)c1ccc(C2CCN(c3ccnc(OCc4ccccc4)n3)CC2)cc1` [Example 11.23], the pIC50 is 5.82.

With `CC(C)Oc1cc(N2CCC(c3ccc([C@H](C)NC(=O)C4CC4)cc3)CC2)ccn1` [Example 1.120], the pIC50 is 6.60. As for `CC(=O)N[C@@H](C)c1ccc(C2CCN(c3cc(NCC4CC4)ncn3)CC2)cc1` [Example 11.112], the pIC50 is 5.96. The figure for `CC(=O)N[C@@H](C)c1ccc(C2CCN(c3ccc(C(=O)C4CC4)cn3)CC2)cc1` [Example 5.21] is 6.07; for `CCC(NC(C)=O)c1ccc(C2CCN(c3ccc(OC4CC4)cc3)CC2)cc1` (centres unmarked) [Example 1.204] it is 6.35. The value for `CC(=O)N[C@@H](C)c1ccc(C2CCN(c3cccc(OCC4CCC4)c3)CC2)cc1` [Example 9.12] was 6.60; that for `CC(=O)N[C@@H](C)c1ccc(C2CCN(c3ccnc(N(C)CC4CC4)n3)CC2)cc1` [Example 11.90] was 6.64.

In the case of `CC(=O)N[C@@H](C)c1ccc(C2CCN(c3ccc4c(Cl)cccc4n3)CC2)cc1` [Example 5.32], the pIC50 was 5.42. The figure for `COc1cc(N2CCC(c3ccc([C@H](C)NC(C)=O)cc3)CC2)ccc1OC1CCCC1` [Example 8.38] is 5.92; for `CC(=O)N[C@@H](C)c1ccc(C2CCN(c3ncc(-c4ccc(C)cc4Cl)cn3)CC2)cc1` [Example 10.66] it is 6.80. In the case of `CC(=O)N[C@@H](C)c1ccc(C2CCN(c3ncc(-c4cc(C)ccc4C)cn3)CC2)cc1` [Example 10.54], the pIC50 is 6.38. With `CC(C)COc1ccc(N2CCC(c3ccc([C@H](C)NC(=O)N(C)C)cc3)CC2)nc1` [Example 1.126], the pIC50 is 6.64. The value for `CC(=O)N[C@@H](C)c1ccc(C2CCN(c3ncc(-c4ccccc4)cn3)CC2)cc1` [Example 10.43] was 7.52; that for `CC(=O)N[C@@H](C)c1ccc(C2CCN(c3ncc(-c4cnc5ccccc5c4)cn3)CC2)cc1` [Example 10.21] was 7.15. In the case of `CC(=O)N[C@@H](C)c1ccc(C2CCN(c3cc(NC4CCCC4)ncn3)CC2)cc1` [Example 11.103], the pIC50 is 5.59. The value for `CC(=O)N[C@@H](C)c1ccc(C2CCN(c3ccc(OC(C)C)c(C)c3)CC2)cc1` [Example 8.23] was 6.24.

`CC(=O)N[C@@H](C)c1ccc(C2CCN(c3ncc(C(=O)N4Cc5ccncc5C4)cn3)CC2)cc1` [Example 18.46]: the pIC50 is 5.22.

Regarding `CCOc1ccc(N2CCC(c3ccc([C@H](C)NC(=O)N4CCCCC4)cc3)CC2)cc1` [Example 14.69], the pIC50 was 4.92. The value for `CC(=O)N[C@@H](C)c1ccc(C2CCN(c3ncc(C(=O)Nc4ccccc4)cn3)CC2)cc1` [Example 18.95] was 6.72; that for `COc1cc(OC2CC2)ccc1N1CCC(c2ccc([C@H](C)NC(=O)N(C)C)cc2)CC1` [Example 1.106] was 6.77. The value for `CC(=O)N[C@@H](C)c1ccc(C2CCN(c3ccnc(NCC4CC4)n3)CC2)cc1` [Example 11.111] was 6.19.

`CC(=O)N[C@@H](C)c1ccc(C2CCN(c3ncc(C(=O)N4CCCC4)cn3)CC2)cc1` [Example 18.54]: the pIC50 is 5.68.

For `CCCOc1cccc(N2CCC(c3ccc([C@H](C)NC(C)=O)cc3)CC2)c1` [Example 1.89], the pIC50 was 6.41. The value for `CC(=O)N[C@@H](C)c1ccc(C2CCN(c3ccc(OCc4ccoc4)cc3)CC2)cc1` [Example 1.186] was 6.77.

As for `CC(=O)N[C@@H](C)c1ccc(C2CCN(c3ccc(O[C@@H]4CCOC4)cc3F)CC2)cc1` [Example 1.63], the pIC50 was 5.89. The value for `CCOc1ccc(N2CCC(c3ccc([C@H](C)NC(=O)Nc4nccs4)cc3)CC2)cc1` [Example 14.57] was 4.85; that for `CCCOc1ccc(N2CCC(c3ccc([C@H](C)NC(C)=O)cc3)CC2)cc1C#N` [Example 8.32] was 5.49. The figure for `CCOc1ccc(N2CCC(c3ccc([C@H](C)NC(=O)C4CC4C)cc3)CC2)cc1` (some centres unmarked) [Example 6.18] is 5.96. The figure for `CCOc1ccc(N2CCC(c3ccc([C@H](C)NC(=O)C4CC4(F)F)cc3)CC2)cc1` (some centres unmarked) [Example 6.23] is 6.38; for `CCNC(=O)c1cnc(N2CCC(c3ccc([C@H](C)NC(C)=O)cc3)CC2)nc1` [Example 18.90] it is 5.92; for `COC(=O)N[C@@H](C)c1ccc(C2CCN(c3ccc4c(c3)OCCO4)CC2)cc1` [Example 1.17] it is 6.35. `COc1cccc(NC(=O)c2cnc(N3CCC(c4ccc([C@H](C)NC(C)=O)cc4)CC3)nc2)c1` [Example 18.12]: the pIC50 is 6.38. The figure for `C[C@H](NC(=O)C1CC1)c1ccc(C2CCN(c3ccc(OCC4CC4)cc3)CC2)cc1` [Example 1.16] is 7.05; for `COc1cc(N2CCC(c3ccc([C@H](C)NC(C)=O)cc3)CC2)ccc1Cl` [Example 1.162] it is 5.51; for `CC(=O)N[C@@H](C)c1ccc(C2CCN(c3ccc4[nH]cc(C)c4c3)CC2)cc1` [Example 1.75] it is 5.66.

Turning to `CCOc1ccc(N2CCC(c3ccc([C@H](C)NC(=O)c4ccc[nH]4)cc3)CC2)cc1` [Example 6.22], the pIC50 was 6.17. The value for `CCOc1ccc(N2CCC(c3ccc([C@H](C)NC(=O)N(C)C)cc3)CC2)c(OCC)c1` [Example 1.129] was 5.46; that for `COCCCOc1ccc(N2CCC(c3ccc([C@H](C)NC(C)=O)cc3)CC2)cc1` [Example 9.26] was 6.66; that for `CCOc1ccc(N2CCC(c3ccc([C@H](C)NC(=O)Nc4ncccn4)cc3)CC2)cc1` [Example 14.56] was 4.83. The value for `CCC(C)Oc1ccc(N2CCC(c3ccc([C@H](C)NC(=O)C4CC4)cc3)CC2)cc1` (some centres unmarked) [Example 1.10] was 6.66. The value for `CC(=O)N[C@@H](C)c1ccc(C2CCN(c3ncc(C(=O)N4CCc5cnccc54)cn3)CC2)cc1` [Example 18.40] was 5.18; that for `CC(=O)N[C@@H](C)c1ccc(C2CCN(c3ccc(OC4CCC4)c(C)c3)CC2)cc1` [Example 8.11] was 5.74. On to `CCOc1ccc(N2CCC(c3ccc([C@H](C)NC(=O)c4ccno4)cc3)CC2)cc1` [Example 6.12], for which the pIC50 is 5.89. On to `CC(=O)N[C@@H](C)c1ccc(C2CCN(c3ncc(Br)cn3)CC2)cc1` [Example 4.44], for which the pIC50 was 6.19. On to `CC(=O)N[C@@H](C)c1ccc(C2CCN(c3ncc(C(=O)NC4CC4)cn3)CC2)cc1` [Example 18.5], for which the pIC50 is 5.72. The value for `CC(=O)N[C@@H](C)c1ccc(C2CCN(c3cc(OCCC4CC4)ncn3)CC2)cc1` [Example 11.3] was 6.60. In the case of `CC(=O)N[C@@H](C)c1ccc(C2CCN(c3ccc4oc(C(C)C)nc4c3)CC2)cc1` [Example 15.6], the pIC50 is 6.59. The value for `CCC(C)Oc1cccc(N2CCC(c3ccc([C@H](C)NC(C)=O)cc3)CC2)c1` (some centres unmarked) [Example 1.90] was 6.64. The figure for `CC(=O)N[C@@H](C)c1ccc(C2CCN(c3ccc4nnn(C)c4n3)CC2)cc1` [Example 4.14] is 5.62; for `CC(=O)N[C@@H](C)c1ccc(C2CCN(c3cc(OCC4CCCC4)ncn3)CC2)cc1` [Example 11.10] it is 6.57. The figure for `COc1cc(OC(C)C)ccc1N1CCC(c2ccc([C@H](C)NC(C)=O)cc2)CC1` [Example 1.35] is 6.49; for `C[C@H](NC(=O)N(C)C)c1ccc(C2CCN(c3ccc(OCC4CC4)cc3F)CC2)cc1` [Example 1.84] it is 6.74. Turning to `CC(=O)N[C@@H](C)c1ccc(C2CCN(c3ccc(OCC4CCC4)c(C#N)c3)CC2)cc1` [Example 9.36], the pIC50 was 5.48. In the case of `CCOc1ccc(N2CCC(c3ccc([C@H](C)NC(=O)N(C)C)cc3)CC2)nc1` [Example 1.179], the pIC50 was 6.51.

In the case of `CCc1nc(N2CCC(c3ccc([C@H](C)NC(C)=O)cc3)CC2)no1` [Example 26.2], the pIC50 is 5.39.

For `CCCOc1cnc(N2CCC(c3ccc([C@H](C)NC(C)=O)cc3)CC2)nc1` [Example 4.49], the pIC50 was 6.68. The figure for `C[C@H](NC(=O)C1CC1)c1ccc(C2CCN(c3nc(OC4CCC4)ncc3F)CC2)cc1` [Example 11.124] is 6.06; for `CC(=O)N[C@@H](C)c1ccc(C2CCN(c3ccnc(OCCC4CC4)c3)CC2)cc1` [Example 19.12] it is 6.74; for `CC(=O)N[C@@H](C)c1ccc(C2CCN(c3ncc(-c4ccc(C)cc4)cc3F)CC2)cc1` [Example 10.315] it is 6.92. As to `CC(=O)N[C@@H](C)c1ccc(C2CCN(c3ncc(C(C)(C)C)s3)CC2)cc1` [Example 4.102], the pIC50 is 6.33. The value for `COc1cnc(N2CCC(c3ccc([C@H](C)NC(C)=O)cc3)CC2)nc1` [Example 4.33] was 6.29. As to `CC(=O)N[C@@H](C)c1ccc(C2CCN(c3ncc(C(=O)NCc4cocn4)cn3)CC2)cc1` [Example 18.29], the pIC50 was 5.19.

These data come from patent US9006450B2 (Boehringer Ingelheim International GmbH, priority 2010, dated 2015).
